Measured values: US20050209278A1, “Piperidinyl- and piperazinyl-sulfonylmethyl hydroxamic acids and their use as protease inhibitors” (priority 2002, published 2005)

Columns and labels:
Format in all cases: biochemical
[1] = target: T1, MMP-2 (Homo sapiens, UniProt P08253); test: MMP-2 inhibition (in vitro Ki); conditions: Table 9; read-out: MMP-2 Ki (IC-50)
T1 construct: made in house; host or cells: MMP-2-transfected p2AHT2 cells
T1 sequence (P08253 110-660): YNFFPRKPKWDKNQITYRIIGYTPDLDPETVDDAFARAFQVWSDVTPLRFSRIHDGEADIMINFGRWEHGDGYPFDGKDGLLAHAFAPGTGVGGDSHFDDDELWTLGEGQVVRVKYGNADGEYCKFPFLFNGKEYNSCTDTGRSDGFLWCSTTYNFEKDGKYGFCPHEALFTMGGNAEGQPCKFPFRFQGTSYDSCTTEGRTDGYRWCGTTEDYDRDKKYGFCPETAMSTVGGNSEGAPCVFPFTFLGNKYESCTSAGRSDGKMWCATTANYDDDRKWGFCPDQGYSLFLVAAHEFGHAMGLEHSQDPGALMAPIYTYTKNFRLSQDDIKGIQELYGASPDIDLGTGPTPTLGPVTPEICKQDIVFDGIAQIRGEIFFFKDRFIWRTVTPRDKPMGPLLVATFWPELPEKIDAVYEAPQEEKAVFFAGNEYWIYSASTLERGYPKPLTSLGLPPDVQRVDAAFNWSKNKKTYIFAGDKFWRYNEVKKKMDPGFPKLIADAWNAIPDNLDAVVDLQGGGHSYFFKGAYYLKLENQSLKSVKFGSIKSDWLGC

[2] = target: T2, MMP-9 (Homo sapiens, UniProt P14780); test: MMP-9 inhibition (in vitro Ki); conditions: Table 9; read-out: MMP-9 Ki (IC-50)
T2 construct: made in house; host or cells: MMP-9-transfected HT1080 cells (spent media)

[3] = target: T3, MMP-1 (Homo sapiens, UniProt P03956); test: MMP-1 inhibition (in vitro Ki); conditions: Table 9; read-out: MMP-1 Ki (IC-50)
T3 construct: made in house; host or cells: MMP-1-transfected HT-1080 cells (spent media)
T3 sequence (P03956 100-469): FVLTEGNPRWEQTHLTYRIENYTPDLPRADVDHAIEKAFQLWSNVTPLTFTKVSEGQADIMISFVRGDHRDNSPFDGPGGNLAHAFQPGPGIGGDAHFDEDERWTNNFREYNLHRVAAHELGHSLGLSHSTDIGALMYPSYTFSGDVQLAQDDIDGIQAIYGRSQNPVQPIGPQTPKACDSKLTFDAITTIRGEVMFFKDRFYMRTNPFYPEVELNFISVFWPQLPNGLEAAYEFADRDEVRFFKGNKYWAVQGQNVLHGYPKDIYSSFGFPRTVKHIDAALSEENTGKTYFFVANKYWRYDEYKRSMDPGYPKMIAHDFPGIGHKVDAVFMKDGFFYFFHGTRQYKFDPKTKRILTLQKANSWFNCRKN

[4] = target: T4, MMP-14 (Homo sapiens, UniProt P50281); test: MMP-14 inhibition (in vitro Ki); conditions: Table 9; read-out: MMP-14 Ki (IC-50)
T4 construct: The catalytic domain enzyme was expressed in E. coli inclusion bodies, solubilized in urea; made in house

[5] = target: T5, MMP-13 (Homo sapiens, UniProt P45452); test: MMP-13 inhibition (in vitro Ki); conditions: Table 9; read-out: MMP-13 Ki (IC-50)
T5 construct: made in house; host or cells: baculovirus / insect cells

T2 sequence (P14780 107-707 limits assumed): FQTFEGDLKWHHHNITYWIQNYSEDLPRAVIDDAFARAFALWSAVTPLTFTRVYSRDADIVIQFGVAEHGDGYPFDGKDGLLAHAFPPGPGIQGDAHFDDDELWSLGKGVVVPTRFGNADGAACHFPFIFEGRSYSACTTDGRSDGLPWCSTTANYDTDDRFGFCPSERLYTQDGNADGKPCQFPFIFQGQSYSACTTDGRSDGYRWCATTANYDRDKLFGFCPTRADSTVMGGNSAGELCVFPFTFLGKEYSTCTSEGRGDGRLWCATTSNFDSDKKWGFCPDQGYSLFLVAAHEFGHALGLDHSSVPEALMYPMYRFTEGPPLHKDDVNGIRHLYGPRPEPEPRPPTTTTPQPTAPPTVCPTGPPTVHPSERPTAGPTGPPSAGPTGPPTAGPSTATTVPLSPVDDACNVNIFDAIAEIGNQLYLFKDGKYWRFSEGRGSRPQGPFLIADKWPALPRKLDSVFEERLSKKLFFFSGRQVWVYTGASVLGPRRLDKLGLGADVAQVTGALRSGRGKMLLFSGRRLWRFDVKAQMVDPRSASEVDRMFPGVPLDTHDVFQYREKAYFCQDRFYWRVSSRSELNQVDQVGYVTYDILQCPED

Ki [1] [nM]	Ki [2] [nM]	Ki [3] [nM]	Ki [4] [nM]	Ki [5] [nM]	Compound
1.93	1.77	> 10000	5060	1.03	COCCCc1ccc(C2CCN(S(=O)(=O)C3(C(=O)NO)CCOCC3)CC2)nc1 [Example A166]
3.04	2.21	> 10000	> 10000	1.54	O=C(NO)C1(S(=O)(=O)N2CCC(c3ccc(CCC(F)(F)C(F)(F)F)cn3)CC2)CCN(c2ccccc2)CC1 [Example A167]
1.7	1.5	2290	8570	1.72	CC(F)(F)COc1ccc(C2CCN(S(=O)(=O)C3(C(=O)NO)CCOCC3)CC2)nc1 [Example A168]
3.5	10.2	5370	9300	4.53	C/C(COc1ccc(C2CCN(S(=O)(=O)C3(C(=O)NO)CCOCC3)CC2)nc1)=N/O [Example A169]
4.21	4.01	> 10000	> 10000	1.55	O=C(NO)C1(S(=O)(=O)N2CCC(c3ccc(CCC(F)(F)C(F)(F)F)cn3)CC2)CCNCC1 [Example A170]
0.42	0.54	4180	604	0.31	COCC#Cc1ccc(C2CCN(S(=O)(=O)C3(C(=O)NO)CCOCC3)CC2)nc1 [Example A171]
1.31	0.36	4070	3620	1.24	O=C(NO)C1(S(=O)(=O)N2CCC(c3ccc(OCC4CC4)cn3)CC2)CCOCC1 [Example A172]
7.59	1.84	> 10000	> 10000	1.91	O=C(NO)C1(S(=O)(=O)N2CCC(c3ccc(COCC(F)(F)F)cn3)CC2)CCOCC1 [Example A173]
1.31	0.73	> 10000	6520	0.52	O=C(NO)C1(S(=O)(=O)N2CCC(c3ccc(CCC(F)(F)C(F)(F)F)cn3)CC2)CCN(Cc2ccccc2)CC1 [Example A174]
0.07	1.37	854	591	0.09	O=C(NO)C1(S(=O)(=O)N2CCN(c3ccc(-c4nnn(CC5CC5)n4)cc3)CC2)CCOCC1 [Example A175]
0.08	0.81	1710	184	0.15	CCc1nc(-c2ccc(N3CCN(S(=O)(=O)C4(C(=O)NO)CCOCC4)CC3)cc2)no1 [Example A176]
3.83	0.88	> 10000	3360	6.81	COCc1ccc(C2CCN(S(=O)(=O)C3(C(=O)NO)CCOCC3)CC2)nc1 [Example A177]
0.881	0.596	> 10000	1950	0.437	O=C(NO)C1(S(=O)(=O)N2CCC(c3ccc(CCC(F)(F)C(F)(F)F)cn3)CC2)CCN(c2ncccn2)CC1 [Example A178]
2.51	0.49	> 10000	4280	1.9	CCOCc1ccc(C2CCN(S(=O)(=O)C3(C(=O)NO)CCOCC3)CC2)nc1 [Example A179]
2.35	96.1	8890	1300	2.1	N#Cc1ccc(N2CCN(S(=O)(=O)C3(C(=O)NO)CCOCC3)CC2)cc1F [Example A180]
2.36	1.33	> 10000	> 10000	0.61	CCN1CCC(C(=O)NO)(S(=O)(=O)N2CCC(c3ccc(CCC(F)(F)C(F)(F)F)cn3)CC2)CC1 [Example A181]
0.93	0.39	> 10000	5890	0.3	COCCN1CCC(C(=O)NO)(S(=O)(=O)N2CCC(c3ccc(CCC(F)(F)C(F)(F)F)cn3)CC2)CC1 [Example A182]
2.06	307	> 10000	> 10000	1.07	O=C(NO)C1(S(=O)(=O)N2CCN(c3ccc(CCCC(F)(F)F)cc3)CC2)CCN(CC(F)(F)F)CC1 [Example A183]

Ki [1] [nM]	Ki [2] [nM]	Ki [3] [nM]	Ki [4] [nM]	Ki [5] [nM]	Compound
0.38	0.52	7050	985	0.41	O=C(NO)C1(S(=O)(=O)N2CCN(c3ccc(CCC(F)(F)F)cn3)CC2)CCOCC1 [Example A184]
1.1	1.69	1720	42.7	0.95	O=C(NO)C1(S(=O)(=O)N2CCC(CCc3ccccc3)CC2)CCOCC1 [Example A185]
0.23	0.55	924	421	0.21	CCn1nnc(-c2ccc(N3CCN(S(=O)(=O)C4(C(=O)NO)CCOCC4)CC3)cc2)n1 [Example A186]
0.54	2.14	936	1240	0.56	O=C(NO)C1(S(=O)(=O)N2CCN(c3ccc(-c4cccs4)cn3)CC2)CCOCC1 [Example A187]
7.61	54.7	3310	6200	3.89	O=C(NO)C1(S(=O)(=O)N2CCC(c3ccc(-n4ccnc4)cn3)CC2)CCOCC1 [Example A188]
0.39	1.09	> 10000	3350	0.22	O=C(NO)C1(S(=O)(=O)N2CCN(c3ccc(CCC(F)(F)C(F)(F)F)cn3)CC2)CCOCC1 [Example A190]
0.31	0.27	1710	470	0.13	CSCCOc1ccc(C2CCN(S(=O)(=O)C3(C(=O)NO)CCOCC3)CC2)nc1 [Example A191]
4.7	8.24	4710	2820	2.09	Cc1cnn(-c2ccc(C3CCN(S(=O)(=O)C4(C(=O)NO)CCOCC4)CC3)nc2)c1 [Example A193]
8.71	12.6	> 10000	1700	8.86	O=C(NO)C1(S(=O)(=O)N2CCC(c3ccc(-n4cccn4)cn3)CC2)CCOCC1 [Example A194]
0.18	6.81	1570	2430	0.34	O=C(NO)C1(S(=O)(=O)N2CCN(c3ccc(-c4cccnc4)c(F)c3)CC2)CCOCC1 [Example A195]
70	2.02	> 10000	> 10000	21.8	CCCCc1cnc(C2CCN(S(=O)(=O)C3(C(=O)NO)CCOCC3)CC2)nc1 [Example A196]
0.06	0.84	287	287	0.04	O=C(NO)C1(S(=O)(=O)N2CCN(c3ccc(-c4nnn(CC(F)(F)F)n4)cc3)CC2)CCOCC1 [Example A199]
8.83	6.77	> 10000	> 10000	6.77	O=C(NO)C1(S(=O)(=O)N2CCC(c3ccc(-c4nccs4)cn3)CC2)CCOCC1 [Example A200]
4.25	16.8	5850	3380	2.14	Cn1cc(-c2ccc(C3CCN(S(=O)(=O)C4(C(=O)NO)CCOCC4)CC3)nc2)cn1 [Example A201]
0.46	0.92	2300	1230	2.08	Cn1nnc(-c2ccc(C3CCN(S(=O)(=O)C4(C(=O)NO)CCOCC4)CC3)cc2)n1 [Example A202]
0.65	0.29	> 10000	5100	0.23	O=C(NO)C1(S(=O)(=O)N2CCC(c3ccc(CCC(F)(F)C(F)(F)F)cn3)CC2)CCN(C2CC2)CC1 [Example A204]
0.33	1.16	3590	297	0.93	O=C(NO)C1(S(=O)(=O)N2CCN(c3ccc(-c4ccsc4)c(F)c3)CC2)CCOCC1 [Example A205]
